From US20120121591A1 (priority 2009, published 2012)

Assays:
Format in all cases: cell-based
[1] = system: IL-2 secretion from T cells in human whole blood; conditions: read-out: WB (IL-2) IC50 (nM, Avg)
[2] = system: IFN-g secretion from T cells in human whole blood; conditions: read-out: WB (IFNg) IC50 (nM, Avg)
hKv1.3 = hKv1.3 (Homo sapiens, UniProt P22001); assay: cell-based; conditions: Kv1.3 (IWQ) IC50 (nM, Avg)
Sequence of hKv1.3 (P22001 whole entry): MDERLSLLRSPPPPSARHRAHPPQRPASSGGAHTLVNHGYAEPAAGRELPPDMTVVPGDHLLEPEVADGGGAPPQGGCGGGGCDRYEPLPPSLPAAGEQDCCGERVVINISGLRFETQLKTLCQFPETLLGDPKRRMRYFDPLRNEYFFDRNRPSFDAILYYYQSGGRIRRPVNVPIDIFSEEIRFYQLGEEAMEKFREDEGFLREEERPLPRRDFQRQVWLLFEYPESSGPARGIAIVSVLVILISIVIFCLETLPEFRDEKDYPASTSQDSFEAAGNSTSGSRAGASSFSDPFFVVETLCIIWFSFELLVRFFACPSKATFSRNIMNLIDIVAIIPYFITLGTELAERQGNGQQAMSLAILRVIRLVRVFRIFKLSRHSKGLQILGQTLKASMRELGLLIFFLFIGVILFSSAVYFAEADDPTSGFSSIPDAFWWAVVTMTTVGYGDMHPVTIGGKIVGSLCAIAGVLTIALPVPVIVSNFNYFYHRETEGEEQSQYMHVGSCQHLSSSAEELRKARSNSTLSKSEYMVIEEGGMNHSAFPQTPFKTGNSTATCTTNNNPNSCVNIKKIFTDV

Row | SMILES | IC50 [1] | IC50 [2] | IC50 (hKv1.3)
1 | CC[C@H](C)[C@@H]1NC(=O)[C@@H](NC(=O)[C@H](CO)NC(=O)[C@@H](N)CCCNC(=N)N)CSSC[C@@H](C(=O)O)NC(=O)[C@H]([C@@H](C)O)NC(=O)CNC(=O)[C@@H]2CSSC[C@@H]3NC(=O)[C@H](CCCNC(=N)N)NC(=O)[C@H](Cc4ccccc4)NC(=O)[C@H](C)NC(=O)[C@H]([C@@H](C)O)NC(=O)[C@H](CSSC[C@H](NC(=O)[C@H](Cc4ccccc4)NC(=O)[C@H](CO)NC(=O)[C@H](CC(C)C)NC(=O)[C@H](CCCNC(=N)N)NC(=O)[C@H](Cc4ccc(O)cc4)NC(=O)[C@H](CCCCN)NC(=O)[C@H](CCSC)NC(=O)[C@H](CO)NC(=O)[C@H](Cc4c[nH]cn4)NC(=O)[C@H](CCCCN)NC3=O)C(=O)N[C@@H](CCCNC(=N)N)C(=O)N[C@@H](CCCCN)C(=O)N[C@@H]([C@@H](C)O)C(=O)N2)NC(=O)[C@H](CCCNC(=N)N)NC(=O)[C@H](CO)NC(=O)[C@H](CCCCN)NC(=O)[C@@H]2CCCN2C(=O)[C@H]([C@@H](C)CC)NC(=O)[C@H]([C@@H](C)O)NC(=O)[C@H](CC(=O)O)NC1=O [[Arg16]ShK] | 0.652 nM | 0.818 nM | 0.164 nM
2 | CC[C@H](C)[C@@H]1NC(=O)[C@@H](NC(=O)[C@H](CO)NC(=O)[C@@H](N)CCCNC(=N)N)CSSC[C@@H](C(=O)O)NC(=O)[C@H]([C@@H](C)O)NC(=O)CNC(=O)[C@@H]2CSSC[C@@H]3NC(=O)[C@H](CCC(N)=O)NC(=O)[C@H](Cc4ccccc4)NC(=O)[C@H](C)NC(=O)[C@H]([C@@H](C)O)NC(=O)[C@H](CSSC[C@H](NC(=O)[C@H](Cc4ccccc4)NC(=O)[C@H](CO)NC(=O)[C@H](CC(C)C)NC(=O)[C@H](CCCNC(=N)N)NC(=O)[C@H](Cc4ccc(O)cc4)NC(=O)[C@H](CCCCN)NC(=O)[C@H](CCSC)NC(=O)[C@H](CO)NC(=O)[C@H](CCCNC(=N)N)NC(=O)[C@H](CCCCN)NC3=O)C(=O)N[C@@H](CCCNC(=N)N)C(=O)N[C@@H](CCCCN)C(=O)N[C@@H]([C@@H](C)O)C(=O)N2)NC(=O)[C@H](CCCNC(=N)N)NC(=O)[C@H](CO)NC(=O)[C@H](CCCCN)NC(=O)[C@@H]2CCCN2C(=O)[C@H]([C@@H](C)CC)NC(=O)[C@H]([C@@H](C)O)NC(=O)[C@H](CC(=O)O)NC1=O [[Arg19]ShK] | 0.039 nM | 0.116 nM | 0.1 nM
3 | CC[C@H](C)[C@@H]1NC(=O)[C@@H](NC(=O)[C@H](CO)NC(=O)[C@@H](N)CCCNC(=N)N)CSSC[C@@H](C(=O)O)NC(=O)[C@H]([C@@H](C)O)NC(=O)CNC(=O)[C@@H]2CSSC[C@@H]3NC(=O)[C@H](CCC(N)=O)NC(=O)[C@H](Cc4ccccc4)NC(=O)[C@H](C)NC(=O)[C@H]([C@@H](C)O)NC(=O)[C@H](CSSC[C@H](NC(=O)[C@H](Cc4ccccc4)NC(=O)[C@H](CO)NC(=O)[C@H](CC(C)C)NC(=O)[C@H](CCCNC(=N)N)NC(=O)[C@H](Cc4ccc(O)cc4)NC(=O)[C@H](CCCCN)NC(=O)[C@H](CCSC)NC(=O)[C@H](CCCNC(=N)N)NC(=O)[C@H](Cc4c[nH]cn4)NC(=O)[C@H](CCCCN)NC3=O)C(=O)N[C@@H](CCCNC(=N)N)C(=O)N[C@@H](CCCCN)C(=O)N[C@@H]([C@@H](C)O)C(=O)N2)NC(=O)[C@H](CCCNC(=N)N)NC(=O)[C@H](CO)NC(=O)[C@H](CCCCN)NC(=O)[C@@H]2CCCN2C(=O)[C@H]([C@@H](C)CC)NC(=O)[C@H]([C@@H](C)O)NC(=O)[C@H](CC(=O)O)NC1=O [[Arg20]ShK] | 36.9 nM | 31.3 nM | 3.84 nM
4 | CC[C@H](C)[C@@H]1NC(=O)[C@@H](NC(=O)[C@H](CO)NC(=O)[C@@H](N)CCCNC(=N)N)CSSC[C@@H](C(=O)O)NC(=O)[C@H]([C@@H](C)O)NC(=O)CNC(=O)[C@@H]2CSSC[C@@H]3NC(=O)[C@H](CCC(N)=O)NC(=O)[C@H](Cc4ccccc4)NC(=O)[C@H](C)NC(=O)[C@H]([C@@H](C)O)NC(=O)[C@H](CSSC[C@H](NC(=O)[C@H](Cc4ccccc4)NC(=O)[C@H](CO)NC(=O)[C@H](CC(C)C)NC(=O)[C@H](CCCNC(=N)N)NC(=O)[C@H](Cc4ccc(O)cc4)NC(=O)[C@H](CCCCN)NC(=O)[C@H](CCCNC(=N)N)NC(=O)[C@H](CO)NC(=O)[C@H](Cc4c[nH]cn4)NC(=O)[C@H](CCCCN)NC3=O)C(=O)N[C@@H](CCCNC(=N)N)C(=O)N[C@@H](CCCCN)C(=O)N[C@@H]([C@@H](C)O)C(=O)N2)NC(=O)[C@H](CCCNC(=N)N)NC(=O)[C@H](CO)NC(=O)[C@H](CCCCN)NC(=O)[C@@H]2CCCN2C(=O)[C@H]([C@@H](C)CC)NC(=O)[C@H]([C@@H](C)O)NC(=O)[C@H](CC(=O)O)NC1=O [[Arg21]ShK] | 1.76 nM | 4.66 nM | 0.283 nM
5 | CC[C@H](C)[C@@H]1NC(=O)[C@@H](NC(=O)[C@H](CO)NC(=O)[C@@H](N)CCCNC(=N)N)CSSC[C@@H](C(=O)O)NC(=O)[C@H]([C@@H](C)O)NC(=O)CNC(=O)[C@@H]2CSSC[C@@H]3NC(=O)[C@H](CCC(N)=O)NC(=O)[C@H](Cc4ccccc4)NC(=O)[C@H](C)NC(=O)[C@H]([C@@H](C)O)NC(=O)[C@H](CSSC[C@H](NC(=O)[C@H](Cc4ccccc4)NC(=O)[C@H](CO)NC(=O)[C@H](CCCNC(=N)N)NC(=O)[C@H](CCCNC(=N)N)NC(=O)[C@H](Cc4ccc(O)cc4)NC(=O)[C@H](CCCCN)NC(=O)[C@H](CCSC)NC(=O)[C@H](CO)NC(=O)[C@H](Cc4c[nH]cn4)NC(=O)[C@H](CCCCN)NC3=O)C(=O)N[C@@H](CCCNC(=N)N)C(=O)N[C@@H](CCCCN)C(=O)N[C@@H]([C@@H](C)O)C(=O)N2)NC(=O)[C@H](CCCNC(=N)N)NC(=O)[C@H](CO)NC(=O)[C@H](CCCCN)NC(=O)[C@@H]2CCCN2C(=O)[C@H]([C@@H](C)CC)NC(=O)[C@H]([C@@H](C)O)NC(=O)[C@H](CC(=O)O)NC1=O [[Arg25]ShK] | 0.095 nM | 0.2 nM | 0.107 nM
6 | CC[C@H](C)[C@@H]1NC(=O)[C@@H](NC(=O)[C@H](CO)NC(=O)[C@@H](N)CCCNC(=N)N)CSSC[C@@H](C(=O)O)NC(=O)[C@H]([C@@H](C)O)NC(=O)CNC(=O)[C@@H]2CSSC[C@@H]3NC(=O)[C@H](CCC(N)=O)NC(=O)[C@H](Cc4ccccc4)NC(=O)[C@H](C)NC(=O)[C@H]([C@@H](C)O)NC(=O)[C@H](CSSC[C@H](NC(=O)[C@H](Cc4ccccc4)NC(=O)[C@H](CCCNC(=N)N)NC(=O)[C@H](CC(C)C)NC(=O)[C@H](CCCNC(=N)N)NC(=O)[C@H](Cc4ccc(O)cc4)NC(=O)[C@H](CCCCN)NC(=O)[C@H](CCSC)NC(=O)[C@H](CO)NC(=O)[C@H](Cc4c[nH]cn4)NC(=O)[C@H](CCCCN)NC3=O)C(=O)N[C@@H](CCCNC(=N)N)C(=O)N[C@@H](CCCCN)C(=O)N[C@@H]([C@@H](C)O)C(=O)N2)NC(=O)[C@H](CCCNC(=N)N)NC(=O)[C@H](CO)NC(=O)[C@H](CCCCN)NC(=O)[C@@H]2CCCN2C(=O)[C@H]([C@@H](C)CC)NC(=O)[C@H]([C@@H](C)O)NC(=O)[C@H](CC(=O)O)NC1=O [[Arg26]ShK] | 0.208 nM | 0.572 nM | 0.279 nM
7 | CC[C@H](C)[C@@H]1NC(=O)[C@@H](NC(=O)[C@H](CO)NC(=O)[C@@H](N)CCCNC(=N)N)CSSC[C@@H](C(=O)O)NC(=O)[C@H]([C@@H](C)O)NC(=O)CNC(=O)[C@@H]2CSSC[C@@H]3NC(=O)[C@H](CCC(N)=O)NC(=O)[C@H](Cc4ccccc4)NC(=O)[C@H](C)NC(=O)[C@H]([C@@H](C)O)NC(=O)[C@H](CSSC[C@H](NC(=O)[C@H](CCCNC(=N)N)NC(=O)[C@H](CO)NC(=O)[C@H](CC(C)C)NC(=O)[C@H](CCCNC(=N)N)NC(=O)[C@H](Cc4ccc(O)cc4)NC(=O)[C@H](CCCCN)NC(=O)[C@H](CCSC)NC(=O)[C@H](CO)NC(=O)[C@H](Cc4c[nH]cn4)NC(=O)[C@H](CCCCN)NC3=O)C(=O)N[C@@H](CCCNC(=N)N)C(=O)N[C@@H](CCCCN)C(=O)N[C@@H]([C@@H](C)O)C(=O)N2)NC(=O)[C@H](CCCNC(=N)N)NC(=O)[C@H](CO)NC(=O)[C@H](CCCCN)NC(=O)[C@@H]2CCCN2C(=O)[C@H]([C@@H](C)CC)NC(=O)[C@H]([C@@H](C)O)NC(=O)[C@H](CC(=O)O)NC1=O [[Arg27]ShK] | 13 nM | 59.7 nM | 100 nM
8 | CC[C@H](C)[C@@H]1NC(=O)[C@@H](NC(=O)[C@H](CO)NC(=O)[C@@H](N)CCCNC(=N)N)CSSC[C@@H](C(=O)O)NC(=O)[C@H]([C@@H](C)O)NC(=O)CNC(=O)[C@@H]2CSSC[C@@H]3NC(=O)[C@H](CCC(N)=O)NC(=O)[C@H](Cc4ccccc4)NC(=O)[C@H](C)NC(=O)[C@H]([C@@H](C)O)NC(=O)[C@H](CSSC[C@H](NC(=O)[C@H](Cc4ccccc4)NC(=O)[C@H](CO)NC(=O)[C@H](CC(C)C)NC(=O)[C@H](CCCNC(=N)N)NC(=O)[C@H](Cc4ccc(O)cc4)NC(=O)[C@H](CCCCN)NC(=O)[C@H](CCSC)NC(=O)[C@H](CO)NC(=O)[C@H](Cc4c[nH]cn4)NC(=O)[C@H](CCCCN)NC3=O)C(=O)N[C@@H](CCCNC(=N)N)C(=O)N[C@@H](CCCNC(=N)N)C(=O)N[C@@H]([C@@H](C)O)C(=O)N2)NC(=O)[C@H](CCCNC(=N)N)NC(=O)[C@H](CO)NC(=O)[C@H](CCCCN)NC(=O)[C@@H]2CCCN2C(=O)[C@H]([C@@H](C)CC)NC(=O)[C@H]([C@@H](C)O)NC(=O)[C@H](CC(=O)O)NC1=O [[Arg30]ShK] | 0.014 nM | 0.027 nM | 0.04 nM
9 | CC[C@H](C)[C@@H]1NC(=O)[C@@H](NC(=O)[C@H](CO)NC(=O)[C@@H](N)CCCNC(=N)N)CSSC[C@@H](C(=O)O)NC(=O)[C@H]([C@@H](C)O)NC(=O)CNC(=O)[C@@H]2CSSC[C@@H]3NC(=O)[C@H](CCC(N)=O)NC(=O)[C@H](Cc4ccccc4)NC(=O)[C@H](C)NC(=O)[C@H]([C@@H](C)O)NC(=O)[C@H](CSSC[C@H](NC(=O)[C@H](Cc4ccccc4)NC(=O)[C@H](CO)NC(=O)[C@H](CC(C)C)NC(=O)[C@H](CCCNC(=N)N)NC(=O)[C@H](Cc4ccc(O)cc4)NC(=O)[C@H](CCCCN)NC(=O)[C@H](CCSC)NC(=O)[C@H](CO)NC(=O)[C@H](Cc4c[nH]cn4)NC(=O)[C@H](CCCCN)NC3=O)C(=O)N[C@@H](CCCNC(=N)N)C(=O)N[C@@H](CCCCN)C(=O)N[C@@H](CCCNC(=N)N)C(=O)N2)NC(=O)[C@H](CCCNC(=N)N)NC(=O)[C@H](CO)NC(=O)[C@H](CCCCN)NC(=O)[C@@H]2CCCN2C(=O)[C@H]([C@@H](C)CC)NC(=O)[C@H]([C@@H](C)O)NC(=O)[C@H](CC(=O)O)NC1=O [[Arg31]ShK] | 12 nM | 54.8 nM | 3.3 nM
